Data published in patent publication US20160220557A1, “USE OF ACETYL-COA CARBOXYLASE INHIBITORS FOR TREATING ACNE VULGARIS” (PFIZER INC., priority 2013, published 2016).

Tests used:
hACC2 = hACC2 (Homo sapiens, UniProt O00763); assay: Radiometric ACC2 inhibition assay; assay type: biochemical
[1] = tested on: SZ95 human sebocyte cells; assay: Inhibition of de novo lipogenesis (14C-acetate incorporation) in cultured human sebocytes; assay type: cell-based; conditions: for IC50: Homo sapiens, SZ95 sebocytes, 14C-acetate incorporation into lipids relative to vehicle, read-out: C9302E Sebocyte IC50
Experimental: SZ95 sebocytes were grown in Human Sebocyte Growth Medium (HSGM) (Sebomed® medium (Biochrom: F8205) supplemented with 10% heat-inactivated fetal bovine serum, 1% penicillin/streptomycin, 1 mM calcium chloride and 5 ng/mL recombinant human epidermal growth factor (Life Tech: PHG0311)). At 90% confluence, cells were washed three times with PBS and then detached with 0.05% Trypsin-EDTA. Cells were centrifuged and resuspended in HSGM containing 10% charcoal-stripped serum (Life Tech: 12676-029). Cells were then plated in 24-well plates at a density of 0.25×10^6 cells/well and were incubated overnight to enable cell adherence to the culture plate.
Cells were treated with a dose response of compound, and each dose was assayed in triplicate. Briefly, compounds were dissolved in DMSO stocks and diluted 1:1000 into charcoal-stripped media. 0.1% DMSO without compound was used as the vehicle control. After a 1 hour preincubation with compound or vehicle, 0.25 μCi ^14C-acetic acid (American Radiolabeled Chemicals: ARC0158B) was added to each well. Plates were then incubated for an additional two hours. At the end of the incubation period, cells were removed from incubator, placed on ice, and then washed twice with ice-cold PBS to remove free ^14C-acetic acid. Plates were sealed and stored at −20° C. until analysis.
Plates were shaken for 1 hour at room temperature to induce lysis. Lysates were transferred to individual 1.5 mL polypropylene tubes, and wells were washed with 175 μl of PBS, which was added to lysates. 450 μl of a 1:1 (v/v) chloroform:methanol solution was then added to each tube, and then all tubes were vortexed for 10 seconds and centrifuged at 20,000×g for 5 minutes at room temperature to separate aqueous from organic phase. A 25 μl aliquot was removed from the bottom organic layer of each sample and added to 6 mL OptiPhase supermix (PerkinElmer: 1200-439) scintillation fluid. Counts of ^14C incorporated into lipids were assessed by scintillation counting. DNL (counts of ^14C incorporated into lipids) was expressed for compound treated cells relative to DNL in the vehicle control treated cells for determination of EC50 values. For a subset of the compounds tested, a second aliquot (3×35 μl) of the organic layer of each sample was removed and applied to a TLC lane (Analtech Silica Gel G Plates). Radiolabeled lipids were resolved using a 2-solvent system. Solvent 1 contained a 100:100:100:40:36 mixture of ethyl acetate:isopropyl alcohol:CHCl3:MeOH:0.25% KCl and solvent 2 a 70:27:3 hexane:diethyl ether:acetic acid mix. The TLC plate was dried under nitrogen for 30 minutes and [^14C]-calibrators added to a vacant lane. Bands were visualized and quantitated using a Molecular Dynamics' Storm 860 Phosphorimager system following 18-36 hours exposure to a Phosphorimager screen.

hACC1 = hACC1 (Homo sapiens, UniProt Q13085); assay: Radiometric ACC1 inhibition assay; assay type: biochemical
[2] = tested on: de novo lipogenesis in ear skin and liver; assay: Effect of oral and topical ACCi on DNL (14C-acetate incorporation) in Syrian hamsters; assay type: in vivo, Syrian hamster; conditions: topical 100 mg/ml single dose, vs. vehicle
Experimental: Male Syrian gold Hamster at ˜10 weeks were maintained adlibitum on standard hamster chow and water. […] Example 3 for topical delivery was prepared as a solution in a vehicle consisting of 70:30 (Ethanol:propylene glycol) at a concentration of 100 mg/ml. Topical administration of a single dose (5 ul/ear) was applied to hamster ears with a pipette (2-10 ul) tip adhering to 2 minute intervals following the dosing order. The dosing timing allowed for the formulation to spread evenly over an approximate 1 sq cm area and absorb/dry prior to returning the animal to the cage. 1 hour post ACCi dose each animal received an IP injection of ^14C-labeled acetate (ARC0158B diluted in saline) following the 2 minute interval timing format. Each animal received an individually calculated amount of ^14C-acetate based on body weight (0.1 μCi/g in a dosing volume of 2 μl/g). One hour after the ^14C-Acetate injection animals were sacrificed by CO2 asphyxiation.
Liver and ear skin were collected for de novo lipogenesis determinations (^14C incorporation to lipid). Briefly, 2 liver punches totaling ˜400 mg of liver were collected from the bifurcated median lobe of each animal (using a 8 mm diameter Sklar Tru-punch—Sklar Instruments), rinsed with saline and blotted dry. The tissues were placed into pre-weighed in glass tubes (Pyrex 9826-16×125 mm with PTFE lined caps) containing NaOH (1.5 mL of 2.5 M).
Ear skin samples were prepared for analysis in the following manner. One 8 mm distal biopsy punch (using an 8 mm diameter Sklar Tru-punch—Sklar Instruments) (2 per animal) was taken just above the anatomical “V” in the aural cartilage to standardize sample collection area. The punch was then split into 2 layers (anterior and posterior). The anterior (front) surface is retained for analysis. The anterior skin was placed into pre-weighed in glass tubes (Pyrex 9826-16×125 mm with PTFE lined caps) containing NaOH (1.5 mL of 2.5 M).
Upon completion of the study, the liver and ear skin samples in NaOH were weighed and this weight was used to calculate the mass of the tissue collected. The capped tubes were heated in an dry oven (˜60° C.) until the tissue was fully degraded (˜4-6 hr, gentle vortexing 2-3 times during heating). Following degradation and cooling absolute ethanol (2.5 mL) was added to each sample. The tubes were recapped and vigorously mixed (vortexed) for 60 seconds and allowed to settle overnight at RT. Petroleum ether (4.8 mL) was added to each tube, recapped and the samples were vigorous mixed (60 sec). […] Aquasol-2 scintillation fluid (10 mL) (or other compatible scintillation fluid) was added to each vial and after vortexing the samples were counted in an appropriate scintillation counter (e g. Wallac Rack-Beta 1409 LSC). […]

hACC2, sequence (O00763 whole entry): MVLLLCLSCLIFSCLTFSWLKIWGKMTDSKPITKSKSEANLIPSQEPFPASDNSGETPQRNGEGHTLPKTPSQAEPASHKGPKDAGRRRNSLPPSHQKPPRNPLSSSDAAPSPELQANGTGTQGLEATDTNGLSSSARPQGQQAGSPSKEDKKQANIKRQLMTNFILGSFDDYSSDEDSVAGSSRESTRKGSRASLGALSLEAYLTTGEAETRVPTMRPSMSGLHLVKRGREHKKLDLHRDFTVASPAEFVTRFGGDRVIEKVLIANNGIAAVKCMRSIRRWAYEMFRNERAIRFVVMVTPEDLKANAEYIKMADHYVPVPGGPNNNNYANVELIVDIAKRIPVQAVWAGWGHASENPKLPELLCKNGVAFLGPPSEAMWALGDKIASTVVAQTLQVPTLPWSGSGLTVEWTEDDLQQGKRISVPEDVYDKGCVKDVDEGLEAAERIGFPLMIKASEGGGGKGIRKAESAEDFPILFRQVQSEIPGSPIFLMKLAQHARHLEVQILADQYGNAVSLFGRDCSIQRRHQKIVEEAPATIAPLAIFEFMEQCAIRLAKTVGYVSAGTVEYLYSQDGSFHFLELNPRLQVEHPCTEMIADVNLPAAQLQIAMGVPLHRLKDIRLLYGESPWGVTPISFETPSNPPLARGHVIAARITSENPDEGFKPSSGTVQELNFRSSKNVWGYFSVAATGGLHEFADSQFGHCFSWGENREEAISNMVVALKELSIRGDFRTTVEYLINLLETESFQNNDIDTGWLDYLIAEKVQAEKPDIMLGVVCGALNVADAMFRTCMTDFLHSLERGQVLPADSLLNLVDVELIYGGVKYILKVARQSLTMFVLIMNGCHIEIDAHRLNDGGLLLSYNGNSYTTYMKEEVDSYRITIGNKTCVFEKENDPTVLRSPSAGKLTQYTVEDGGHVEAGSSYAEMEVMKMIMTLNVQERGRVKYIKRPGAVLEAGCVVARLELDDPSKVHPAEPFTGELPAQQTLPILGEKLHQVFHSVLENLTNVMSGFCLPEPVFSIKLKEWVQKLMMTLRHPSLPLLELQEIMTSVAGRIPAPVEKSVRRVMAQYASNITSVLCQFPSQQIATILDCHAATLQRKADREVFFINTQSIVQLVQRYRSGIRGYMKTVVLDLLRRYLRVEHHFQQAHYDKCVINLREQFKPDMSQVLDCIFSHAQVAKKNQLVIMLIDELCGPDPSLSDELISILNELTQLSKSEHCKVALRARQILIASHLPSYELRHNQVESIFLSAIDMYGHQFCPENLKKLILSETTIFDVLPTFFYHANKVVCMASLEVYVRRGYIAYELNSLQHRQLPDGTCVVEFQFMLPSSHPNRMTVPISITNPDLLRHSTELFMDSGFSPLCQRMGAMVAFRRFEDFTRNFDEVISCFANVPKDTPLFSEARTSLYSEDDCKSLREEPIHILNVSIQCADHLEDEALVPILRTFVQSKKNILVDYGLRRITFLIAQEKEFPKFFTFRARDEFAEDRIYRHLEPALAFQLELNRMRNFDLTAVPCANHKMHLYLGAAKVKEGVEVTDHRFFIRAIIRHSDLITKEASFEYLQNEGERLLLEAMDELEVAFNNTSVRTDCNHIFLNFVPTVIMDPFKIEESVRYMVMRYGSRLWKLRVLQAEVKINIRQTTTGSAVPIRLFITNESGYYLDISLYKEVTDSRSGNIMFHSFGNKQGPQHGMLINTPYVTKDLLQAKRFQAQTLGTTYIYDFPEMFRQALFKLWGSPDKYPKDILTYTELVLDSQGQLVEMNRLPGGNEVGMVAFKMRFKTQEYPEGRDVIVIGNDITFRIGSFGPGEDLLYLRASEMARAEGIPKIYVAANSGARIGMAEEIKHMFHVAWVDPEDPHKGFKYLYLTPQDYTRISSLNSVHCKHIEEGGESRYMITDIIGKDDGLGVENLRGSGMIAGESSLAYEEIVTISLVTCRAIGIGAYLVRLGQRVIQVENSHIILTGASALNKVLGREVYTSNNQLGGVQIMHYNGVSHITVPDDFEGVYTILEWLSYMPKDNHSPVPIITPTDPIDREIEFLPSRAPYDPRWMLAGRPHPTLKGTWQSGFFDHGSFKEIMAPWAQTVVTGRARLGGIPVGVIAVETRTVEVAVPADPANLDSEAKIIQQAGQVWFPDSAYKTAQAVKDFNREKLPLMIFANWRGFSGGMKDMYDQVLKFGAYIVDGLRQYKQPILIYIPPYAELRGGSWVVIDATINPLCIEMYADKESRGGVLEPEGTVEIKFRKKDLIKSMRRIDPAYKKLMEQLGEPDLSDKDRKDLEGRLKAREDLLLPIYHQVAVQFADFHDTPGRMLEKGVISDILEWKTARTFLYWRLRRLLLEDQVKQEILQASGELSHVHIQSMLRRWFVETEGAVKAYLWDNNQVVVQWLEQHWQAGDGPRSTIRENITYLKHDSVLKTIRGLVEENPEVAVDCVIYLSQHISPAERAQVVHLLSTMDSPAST

| SMILES | IC50 (hACC2) [nM] | IC50 [1] [nM] | IC50 (hACC1) [nM] | incorporation of de novo synthesized fatty acids in liver [2] | incorporation of de novo synthesized fatty acids in skin [2] | incorporation of 14C-acetate into free cholesterol ([1]; SZ95 cells, TLC, vs. vehicle) | incorporation of 14C-acetate into SZ95 cell lipid species containing or comprised of fatty acids ([1]; TLC, cholesterol esters, triglycerides, free fatty acids, diglycerides, monoglyceride, phospholipid, vs. vehicle) |
| --- | --- | --- | --- | --- | --- | --- | --- |
| Cc1nc2ccc(C(=O)N3CCC4(CC3)CC(=O)c3c(cnn3C(C)C)C4)cc2[nH]1 [Example 1, 1-isopropyl-1′-(2-methyl-1H-benzo[d]imidazole-5-carbonyl)-4,6-dihydrospiro[indazole-5,4′-piperidin]-7(1H)-one] | 27 | 679 | 11 |  |  |  |  |
| CC(C)n1ncc2c1C(=O)CC1(CCN(C(=O)c3ccc4ccc(N)nc4c3)CC1)C2 [Example 3, 1′-(2-aminoquinoline-7-carbonyl)-1-isopropyl-4,6-dihydrospiro[indazole-5,4′-piperidin]-7(1H)-one] | 5 | 90 | 5 | failed to inhibit | failed to inhibit | did not alter | clear inhibition |
